According to PubChem BioAssay AID2060483 (Molecular Pharmacology Branch, DTP, NCI, 2025):

System: K24384-001-R-PDC complex spheroids, viability
Test: Anticancer human tumor K24384-001-R-PDC patient-derived pancreatic adenocarcinoma cell line growth inhibition [GQUAD]
Details: for IC50: curve of first compound; for viability, T/C: stronger effect = lower value
In short: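 Multi-cell-type spheroids of tumor cells with HUVEC and mesenchymal stem cells, treated with drug combinations. Concentrations descend in half-log steps from near clinical Cmax, or from 10 microM where Cmax is unknown; viability read-out.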

[1] = second compound 0.0316 µM, first compound 0.0316 µM
[2] = second compound 0.0316 µM, first compound 0.1 µM
[3] = second compound 0.0316 µM, first compound 0.316 µM
[4] = second compound 0.0316 µM, first compound 1 µM
[5] = second compound 0.0316 µM, first compound 3.16 µM
[6] = second compound 0.0316 µM, first compound 10 µM
[7] = second compound 0.1 µM, first compound 0.0316 µM
[8] = second compound 0.1 µM, first compound 0.1 µM
[9] = second compound 0.1 µM, first compound 0.316 µM
[10] = second compound 0.1 µM, first compound 1 µM
[11] = second compound 0.1 µM, first compound 3.16 µM
[12] = second compound 0.1 µM, first compound 10 µM
[13] = second compound 0.316 µM, first compound 0.0316 µM
[14] = second compound 0.316 µM, first compound 0.1 µM
[15] = second compound 0.316 µM, first compound 0.316 µM
[16] = second compound 0.316 µM, first compound 1 µM
[17] = second compound 0.316 µM, first compound 3.16 µM
[18] = second compound 0.316 µM, first compound 10 µM
[19] = second compound 1 µM, first compound 0.0316 µM
[20] = second compound 1 µM, first compound 0.1 µM
[21] = second compound 1 µM, first compound 0.316 µM
[22] = second compound 1 µM, first compound 1 µM
[23] = second compound 1 µM, first compound 3.16 µM
[24] = second compound 1 µM, first compound 10 µM
[25] = second compound 3.16 µM, first compound 0.0316 µM
[26] = second compound 3.16 µM, first compound 0.1 µM
[27] = second compound 3.16 µM, first compound 0.316 µM
[28] = second compound 3.16 µM, first compound 1 µM
[29] = second compound 3.16 µM, first compound 3.16 µM
[30] = second compound 3.16 µM, first compound 10 µM
[31] = second compound 10 µM, first compound 0.0316 µM
[32] = second compound 10 µM, first compound 0.1 µM
[33] = second compound 10 µM, first compound 0.316 µM
[34] = second compound 10 µM, first compound 1 µM
[35] = second compound 10 µM, first compound 3.16 µM
[36] = second compound 10 µM, first compound 10 µM
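Note: spheroids exposed to compounds for seven days.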

C#Cc1c(F)ccc2cc(O)cc(-c3ncc4c(N5CC6CCC(C5)N6)nc(OCC56CCCN5CC(F)C6)nc4c3F)c12 (stereo not drawn) + Cc1[nH]c2ccc(F)cc2c1-c1nc2c3cccnc3c3ncccc3c2[nH]1
IC50 (second compound 0.0316 µM): 1360 nM | IC50 (second compound 0.1 µM): 1490 nM | IC50 (second compound 0.316 µM): 1540 nM | IC50 (second compound 1 µM): 1820 nM | IC50 (second compound 3.16 µM): 969 nM | IC50 (second compound 10 µM): 1080 nM | viability, T/C [1]: 99.9% | viability, T/C [2]: 99.6% | viability, T/C [3]: 129% | viability, T/C [4]: 58.5% | viability, T/C [5]: 34.4% | viability, T/C [6]: 18.2% | viability, T/C [7]: 93.9% | viability, T/C [8]: 112% | viability, T/C [9]: 85.1% | viability, T/C [10]: 58% | viability, T/C [11]: 34.3% | viability, T/C [12]: 14.5% | viability, T/C [13]: 97.1% | viability, T/C [14]: 101% | viability, T/C [15]: 74.4% | viability, T/C [16]: 57.4% | viability, T/C [17]: 39.2% | viability, T/C [18]: 19.1% | viability, T/C [19]: 91% | viability, T/C [20]: 101% | viability, T/C [21]: 83% | viability, T/C [22]: 64.1% | viability, T/C [23]: 37.5% | viability, T/C [24]: 16.9% | viability, T/C [25]: 75.6% | viability, T/C [26]: 87.6% | viability, T/C [27]: 64.7% | viability, T/C [28]: 47.1% | viability, T/C [29]: 31.3% | viability, T/C [30]: 11.7% | viability, T/C [31]: 80.5% | viability, T/C [32]: 68.6% | viability, T/C [33]: 69% | viability, T/C [34]: 52.4% | viability, T/C [35]: 27.5% | viability, T/C [36]: 10.8%

CC(=O)O[C@H]1C(=O)[C@@]2(C)[C@H]([C@H](OC(=O)c3ccccc3)[C@]3(O)C[C@H](OC(=O)[C@H](O)[C@@H](NC(=O)c4ccccc4)c4ccccc4)C(C)=C1C3(C)C)[C@]1(OC(C)=O)CO[C@@H]1C[C@@H]2O + Cc1[nH]c2ccc(F)cc2c1-c1nc2c3cccnc3c3ncccc3c2[nH]1
IC50 (second compound 0.0316 µM): < 31.6 nM | IC50 (second compound 0.1 µM): < 31.6 nM | IC50 (second compound 0.316 µM): < 31.6 nM | IC50 (second compound 1 µM): < 31.6 nM | IC50 (second compound 3.16 µM): < 31.6 nM | IC50 (second compound 10 µM): < 31.6 nM | viability, T/C [1]: 31.8% | viability, T/C [2]: 25% | viability, T/C [3]: 21.2% | viability, T/C [4]: 16.8% | viability, T/C [5]: 24.9% | viability, T/C [6]: 28.7% | viability, T/C [7]: 42.4% | viability, T/C [8]: 23.7% | viability, T/C [9]: 19.6% | viability, T/C [10]: 18.7% | viability, T/C [11]: 22.7% | viability, T/C [12]: 27.1% | viability, T/C [13]: 40% | viability, T/C [14]: 28.3% | viability, T/C [15]: 18.6% | viability, T/C [16]: 22.3% | viability, T/C [17]: 24.5% | viability, T/C [18]: 29.1% | viability, T/C [19]: 38.1% | viability, T/C [20]: 28.2% | viability, T/C [21]: 18.5% | viability, T/C [22]: 26.1% | viability, T/C [23]: 31.6% | viability, T/C [24]: 31.4% | viability, T/C [25]: 34.6% | viability, T/C [26]: 18.9% | viability, T/C [27]: 18.5% | viability, T/C [28]: 16.7% | viability, T/C [29]: 22.9% | viability, T/C [30]: 18.1% | viability, T/C [31]: 27.6% | viability, T/C [32]: 23.2% | viability, T/C [33]: 24.1% | viability, T/C [34]: 15.4% | viability, T/C [35]: 22.2% | viability, T/C [36]: 23.1%

CCCS(=O)(=O)Nc1ccc(F)c(C(=O)c2c[nH]c3ncc(-c4ccc(Cl)cc4)cc23)c1F + Cc1[nH]c2ccc(F)cc2c1-c1nc2c3cccnc3c3ncccc3c2[nH]1
IC50 (second compound 0.0316 µM): 9150 nM | IC50 (second compound 0.1 µM): 8660 nM | IC50 (second compound 0.316 µM): 8260 nM | IC50 (second compound 1 µM): 7750 nM | IC50 (second compound 3.16 µM): 5030 nM | IC50 (second compound 10 µM): 5990 nM | viability, T/C [1]: 86.4% | viability, T/C [2]: 137% | viability, T/C [3]: 107% | viability, T/C [4]: 117% | viability, T/C [5]: 130% | viability, T/C [6]: 44.5% | viability, T/C [7]: 87.7% | viability, T/C [8]: 105% | viability, T/C [9]: 117% | viability, T/C [10]: 128% | viability, T/C [11]: 122% | viability, T/C [12]: 41% | viability, T/C [13]: 92.1% | viability, T/C [14]: 102% | viability, T/C [15]: 140% | viability, T/C [16]: 137% | viability, T/C [17]: 125% | viability, T/C [18]: 36.3% | viability, T/C [19]: 112% | viability, T/C [20]: 109% | viability, T/C [21]: 108% | viability, T/C [22]: 126% | viability, T/C [23]: 128% | viability, T/C [24]: 31% | viability, T/C [25]: 77% | viability, T/C [26]: 111% | viability, T/C [27]: 76.7% | viability, T/C [28]: 92.2% | viability, T/C [29]: 75.9% | viability, T/C [30]: 11.3% | viability, T/C [31]: 84.6% | viability, T/C [32]: 80.8% | viability, T/C [33]: 85.2% | viability, T/C [34]: 117% | viability, T/C [35]: 109% | viability, T/C [36]: 13.8%

O=c1[nH]cc(F)c(=O)[nH]1 + Cc1[nH]c2ccc(F)cc2c1-c1nc2c3cccnc3c3ncccc3c2[nH]1
IC50 (second compound 0.0316 µM): 4360 nM | IC50 (second compound 0.1 µM): > 10000 nM | IC50 (second compound 0.316 µM): 1180 nM | IC50 (second compound 1 µM): 3090 nM | IC50 (second compound 3.16 µM): 479 nM | IC50 (second compound 10 µM): 581 nM | viability, T/C [1]: 98.4% | viability, T/C [2]: 77.9% | viability, T/C [3]: 76.1% | viability, T/C [4]: 55.5% | viability, T/C [5]: 54.9% | viability, T/C [6]: 44.4% | viability, T/C [7]: 88.4% | viability, T/C [8]: 92.7% | viability, T/C [9]: 86.8% | viability, T/C [10]: 55.6% | viability, T/C [11]: 62.4% | viability, T/C [12]: 39.6% | viability, T/C [13]: 97% | viability, T/C [14]: 90.9% | viability, T/C [15]: 66.3% | viability, T/C [16]: 53.3% | viability, T/C [17]: 43.2% | viability, T/C [18]: 39.9% | viability, T/C [19]: 88.2% | viability, T/C [20]: 93.1% | viability, T/C [21]: 66.7% | viability, T/C [22]: 59.9% | viability, T/C [23]: 54.8% | viability, T/C [24]: 36.3% | viability, T/C [25]: 69.4% | viability, T/C [26]: 56.5% | viability, T/C [27]: 51.9% | viability, T/C [28]: 53% | viability, T/C [29]: 35.5% | viability, T/C [30]: 43% | viability, T/C [31]: 65.3% | viability, T/C [32]: 53.6% | viability, T/C [33]: 62.3% | viability, T/C [34]: 40.7% | viability, T/C [35]: 33.8% | viability, T/C [36]: 31.7%
